Measurements from US11389452B2, “Methods for increasing blood plasma 2′-deoxyuridine (dUrd) and thymidylate synthase inhibition” (Isofol Medical AB, priority 2017, dated 2022).
Values belong to the compound of their own block, whether it stands above or below them.

What was measured:
[1] = test system: TS; settings: cited from earlier work
[2] = biological target: T1, thymidylate synthase (TS) (Homo sapiens, UniProt P04818); test: Incremental plasma dUrd (surrogate marker of TS inhibition) 24 hours after bolus 5-FU plus folate in mCRC patients, by LC-MS/MS; type: in vivo; settings: for Mean (t24 − t0) plasma dUrd: 24 hours
T1 construct: endogenous in cells; host or cells: patients with metastatic colorectal cancer (in vivo); plasma sampled
Protocol: The safety and efficacy of [6R]-5,10-methylenetetrahydrofolate ([6R]-MTHF) is analyzed in an open-label, multiple-site, Phase I/II Dose Cohort Trial (ISO-CC-005) in patients with stage IV colorectal cancer (mCRC) to determine the safe and tolerable i.v. bolus dose of 6R-MTHF in combination with standard doses of 5-FU (500 mg/m^2) alone or in combination with a fixed dose of Bevacizumab, Oxaliplatin or Irinotecan in patients with stage IV colorectal cancer. Among groups of patients (n≥3) ascending 6R-MTHF doses of 30-240 mg/m^2 BSA are being evaluated in the presence of various permutations of the cytotoxics, 5-FU alone or 5-FU plus oxaliplatin, bevacizumab or irinotecan given at standard dose levels. The study is expected to be completed by year end 2017. A summary of the study design and each study arm is depicted below in Table 1.
In Gothenburg, for almost two decades, clinical, treatment and outcomes data on all patients with CRC have been collected. Plasma and tissue samples have been stored in a biobank under appropriate physical conditions for long term storage. The database and the biobank operate under the auspices of the relevant ethical and regulatory permissions. Patients having been treated with the standard 5-FU dose, 500 mg/m^2 plus i.v. bolus LV, 60 mg/m^2 (equivalent to 30 mg/m^2 of LLV) were randomly drawn from the databank.
The present study is a historical group comparison study. All patients have been treated with a standard dose of 500 mg 5-FU given as a bolus injection plus the respective folate 6R-MTHF or LV also given as bolus injections.
All patients have been measured during two consecutive treatment cycles with 5-FU. Values for dUrd were measured immediately before injection of 5-FU (t0) and after 24 hours (t24). Mean values and standard deviations for differences between t24 and t0 were calculated for the patients on each dose level of 30 and 60 mg/m^2 6R-MTHF, respectively. Some values have also been assayed and calculated for 240 mg/m^26R-MTHF.
Twenty-four patients with metastatic colorectal cancer (mCRC) treated with 5-FU plus 60 mg/m^2 LV were drawn at random from the data base and levels of dUrd were determined at t0 and t24 from two treatment cycles for each patient and the mean values and standard deviations for the differences between t24 and t0 were calculated in the same way as for the 6R-MTHF patients. Since LV is a 50:50 mixture of the natural (1-formyl-tetrahydrofolate) and unnatural (d-formyl-tetrahydrofolate) isomers the active isomer constitutes one half of the LV doses given. The molecular weights for LV and 6R-MTHF are very similar and therefore 60 mg of LV may be considered as equimolar with 30 mg of 6R-MTHF.
The differences between all four groups were tested by means of the Friedman two-way analysis of variance and thereafter the difference between the two equimolar groups LV 60 mg/m^2 and 6R-MTHF 30 mg/m^2 was tested by means of the Mann-Whitney U test. P-values less than 0.05 were considered significant.
Plasma dUrd was determined by a method comprising liquid chromatography followed by tandem mass spectrometry broadly summarized as follows. Plasma samples were removed from −80° C. freezer, trichloroacetic acid was added to the plasma, and the samples mixed and centrifuged. The supernatant was filtered in a 10 kDa molecular weight cut-off membrane filter and again centrifuged for 30 min. The solution at the bottom of the tube was then ready for LC-MS/MS analysis. […]

[3] = test system: colorectal cancer; settings: cited from earlier work
[4] = test system: pancreas cancer; settings: CoFactor combined with 5-FU, phase I/II trial; cited from earlier work

T1 sequence (P04818 2-313 limits assumed): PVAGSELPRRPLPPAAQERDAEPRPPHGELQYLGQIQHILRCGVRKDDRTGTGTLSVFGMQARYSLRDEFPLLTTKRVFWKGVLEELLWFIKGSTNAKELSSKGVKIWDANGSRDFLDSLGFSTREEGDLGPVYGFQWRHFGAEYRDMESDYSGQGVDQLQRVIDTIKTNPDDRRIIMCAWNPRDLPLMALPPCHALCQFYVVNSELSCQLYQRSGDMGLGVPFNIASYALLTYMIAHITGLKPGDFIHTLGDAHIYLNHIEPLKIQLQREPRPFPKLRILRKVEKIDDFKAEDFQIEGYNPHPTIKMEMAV

SMILES: Nc1nc2c(c(=O)[nH]1)N1CN(c3ccc(C(=O)N[C@@H](CCC(=O)O)C(=O)O)cc3)C[C@@H]1CN2 (single isomer, unassigned) [(6S)-isomer]
- effect on the natural [6R]-isomer as co-substrate for TS [1]: partial competitive inhibitor

- Mean (t24 − t0) plasma dUrd ([2]; active dose 30 mg/m2 BSA LLV, given as 60 mg/m2 d,l-LV bolus, with 5-FU 500 mg/m2 bolus, 48 cycles): 48.7 pmol/mL
SMILES: Nc1nc(=O)c2c([nH]1)NC[C@H](CNc1ccc(C(=O)N[C@@H](CCC(=O)O)C(=O)O)cc1)N2C=O [LLV]

SMILES: Nc1nc(=O)c2c([nH]1)NCC1CN(c3ccc(C(=O)N[C@@H](CCC(=O)[O-])C(=O)[O-])cc3)CN21.[Ca+2] (stereo partly drawn) [CoFactor®, (dl)-5,10,-methylenepteroyl-monoglutamate calcium salt]
- response rate ([3]; Phase II trial, previously untreated metastatic colorectal cancer): 35%
- efficacy and safety compared with leucovorin ([3]; Phase IIb study in colorectal cancer): not demonstrated to be more efficacious than leucovorin
- clinical benefit (stable disease or tumor response), share of patients [4]: 40%

- Mean (t24 − t0) plasma dUrd ([2]; 6R-MTHF 30 mg/m2 BSA bolus with 5-FU 500 mg/m2 bolus, 18 cycles): 74.7 pmol/mL
- Mean (t24 − t0) plasma dUrd ([2]; 6R-MTHF 60 mg/m2 BSA bolus with 5-FU 500 mg/m2 bolus, 16 cycles): 91.8 pmol/mL
- Mean (t24 − t0) plasma dUrd ([2]; 6R-MTHF 240 mg/m2 BSA bolus with 5-FU 500 mg/m2 bolus, 4 cycles): 99.9 pmol/mL
- level of dUrd compared with equimolar LV ([2]; [6R]-MTHF 30 mg/m2 vs LV 60 mg/m2, together with 5-FU, p=0.03): significantly higher level of dUrd
SMILES: Nc1nc2c(c(=O)[nH]1)N1CN(c3ccc(C(=O)N[C@@H](CCC(=O)O)C(=O)O)cc3)C[C@H]1CN2 [6R-MTHF, [6R]-5,10-methylenetetrahydrofolic acid]

SMILES: Nc1nc2c(c(=O)[nH]1)N(C=O)C(CNc1ccc(C(=O)N[C@@H](CCC(=O)O)C(=O)O)cc1)CN2 (some centres unmarked) [LV, 5-formyl tetrahydrofolate]
- overall response rates ([3]; LV added to 5-FU): over 20%

SMILES: O=c1[nH]cc(F)c(=O)[nH]1 [5-FU, 5-Fluorouracil]
- overall response rate ([3]; 5-FU alone): 10-15%
